Results: patent US20230295234A1, “ANTIMICROBIAL PEPTIDOMIMETICS” (SPEXIS AG, priority 2020, published 2023)
Bridge positions count the residues as written; N and C are the ends. Square brackets hold non-standard residues; d marks the D form. Peptide text beside a SMILES is read from it. Gly(N-2-aminoethyl) = NCCNCC(=O)O; Hyp = O=C(O)[C@@H]1C[C@@H](O)CN1; Pen = CC(C)(S)[C@H](N)C(=O)O; dDab = NCC[C@@H](N)C(=O)O; Dab = NCC[C@H](N)C(=O)O

Key:
[1] = system: Escherichia coli ATCC 25922; conditions: ATCC 25922
Summary of the method: (§1)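 Broth microdilution; cation-adjusted MHII; inoculum ~5×10^5 CFU/mL from 0.5 McFarland saline suspension; peptide two-fold serial dilutions; polysorbate 80 0.002% final; peptide stock 1 mg/mL in water.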

[2] = system: Escherichia coli MCR-1 Af 45; conditions: MCR-1 Af 45
Summary of the method: as §1

[3] = system: Klebsiella pneumoniae SSI3010; conditions: SSI3010
Summary of the method: as §1

[4] = system: human red blood cells (hRBC); assay: Hemolysis of human red blood cells; format: cell-based; conditions: red cells of human, 1 h
Summary of the method: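 PBS-washed human red blood cells (20% v/v) were incubated with peptide at 200 μg/mL for 1 h at 37 °C with shaking. Supernatant OD was read at 540 nm after 8-fold dilution. Hemolysis is expressed as percent of the water control.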

SMILES: CC[C@H](C)[C@H](NC(=O)[C@@H]1C[C@@H](O)CN1C(=O)[C@@H](NC(=O)[C@@H]1C[C@@H](O)CN1C(=O)[C@H](CCCCN)NC(=O)[C@@H](N)CCCCN)C(C)C)C(=O)N[C@H](C(=O)N[C@@H](Cc1ccc(O)cc1)C(=O)N[C@@H]1C(=O)N[C@@H](CC(N)=O)C(=O)N[C@@H](CCCNC(=N)N)C(=O)N[C@@H](CCN)C(=O)N[C@@H]([C@@H](C)O)C(=O)N[C@H](CCN)C(=O)N[C@@H](CCCCN)C(=O)N[C@H](C(=O)N[C@@H](CCN)C(=O)N[C@@H](CCCN)C(=O)N[C@@H](Cc2ccc(O)cc2)C(=O)O)CSSC1(C)C)[C@@H](C)O [Example 124, Lys-Lys-Hyp-Val-Hyp-Ile-Thr-Tyr-Pen-Asn-Arg-Dab-Thr-^DDab-Lys-Cys-Dab-Orn-Tyr] (HELM PEPTIDE1{K.K.[Hyp].V.[Hyp].I.T.Y.[Pen].N.R.[Dab].T.[NCC[C@@H](N[*:1])C(=O)[*:2]].K.C.[Dab].[Orn].Y}$PEPTIDE1,PEPTIDE1,9:R3-16:R3$$$V2.0; N-terminus and C-terminus assumed)
- Escherichia coli ATCC 25922 MIC [1]: 0.125 µg/mL
- Escherichia coli MCR-1 Af 45 MIC [2]: 0.0625 µg/mL
- Klebsiella pneumoniae SSI3010 MIC [3]: 0.25 µg/mL
- Hemolysis at 0.2 g/L [4]: 0%

SMILES: CC[C@H](C)[C@H](NC(=O)[C@@H]1C[C@@H](N)CN1C(=O)[C@@H](NC(=O)[C@@H]1C[C@@H](O)CN1C(=O)[C@H](CCCCN)NC(=O)[C@@H](N)CCCCN)C(C)C)C(=O)N[C@H](C(=O)N[C@@H](Cc1ccc(O)cc1)C(=O)N[C@@H]1C(=O)N[C@@H](CC(N)=O)C(=O)N[C@@H](CCCNC(=N)N)C(=O)N[C@@H](CCN)C(=O)N[C@@H]([C@@H](C)O)C(=O)N[C@H](CCN)C(=O)N[C@@H](CCCCN)C(=O)N[C@H](C(=O)N[C@@H](CCN)C(=O)N[C@@H](CCCNC(=N)N)C(=O)N[C@@H](Cc2ccc(O)cc2)C(=O)O)CSSC1(C)C)[C@@H](C)O [Example 125, Lys-Lys-Hyp-Val-Pro((4R)NH2)-Ile-Thr-Tyr-Pen-Asn-Arg-Dab-Thr-^DDab-Lys-Cys-Dab-Arg-Tyr] (HELM PEPTIDE1{K.K.[Hyp].V.[N[C@@H]1C[C@@H](C(=O)[*:2])N([*:1])C1].I.T.Y.[Pen].N.R.[Dab].T.[NCC[C@@H](N[*:1])C(=O)[*:2]].K.C.[Dab].R.Y}$PEPTIDE1,PEPTIDE1,9:R3-16:R3$$$V2.0)
- Escherichia coli ATCC 25922 MIC [1]: ≤0.03125 µg/mL
- Escherichia coli MCR-1 Af 45 MIC [2]: 0.0625 µg/mL
- Klebsiella pneumoniae SSI3010 MIC [3]: 0.0625 µg/mL
- Hemolysis at 0.2 g/L [4]: 0%

SMILES: CC[C@H](C)[C@H](NC(=O)CN(CCN)C(=O)[C@@H](NC(=O)[C@@H]1C[C@@H](O)CN1C(=O)[C@H](CCCCN)NC(=O)[C@@H](N)CCCCN)C(C)C)C(=O)N[C@H](C(=O)N[C@@H](Cc1ccc(O)cc1)C(=O)N[C@@H]1C(=O)N[C@@H](CC(N)=O)C(=O)N[C@@H](CCCNC(=N)N)C(=O)N[C@@H](CCN)C(=O)N[C@@H]([C@@H](C)O)C(=O)N[C@H](CCN)C(=O)N[C@@H](CCCCN)C(=O)N[C@H](C(=O)N[C@@H](CCN)C(=O)N[C@@H](CCCNC(=N)N)C(=O)N[C@@H](Cc2ccc(O)cc2)C(=O)O)CSSC1(C)C)[C@@H](C)O [Example 126, Lys-Lys-Hyp-Val-Ndab-Ile-Thr-Tyr-Pen-Asn-Arg-Dab-Thr-^DDab-Lys-Cys-Dab-Arg-Tyr] (HELM PEPTIDE1{K.K.[Hyp].V.[NCCN(CC(=O)[*:2])[*:1]].I.T.Y.[Pen].N.R.[Dab].T.[NCC[C@@H](N[*:1])C(=O)[*:2]].K.C.[Dab].R.Y}$PEPTIDE1,PEPTIDE1,9:R3-16:R3$$$V2.0)
- Escherichia coli ATCC 25922 MIC [1]: ≤0.03125 µg/mL
- Escherichia coli MCR-1 Af 45 MIC [2]: ≤0.03125 µg/mL
- Klebsiella pneumoniae SSI3010 MIC [3]: 0.0625 µg/mL
- Hemolysis at 0.2 g/L [4]: 0%

SMILES: CC[C@H](C)[C@H](NC(=O)[C@@H]1C[C@@H](O)CN1C(=O)[C@@H](NC(=O)[C@@H]1C[C@@H](O)CN1C(=O)[C@H](CCCCN)NC(=O)[C@@H](N)CCCCN)C(C)C)C(=O)N[C@H](C(=O)N[C@@H](Cc1ccc(O)cc1)C(=O)N[C@@H]1C(=O)N[C@@H](CC(N)=O)C(=O)N[C@@H](CCCNC(=N)N)C(=O)N[C@@H](CCN)C(=O)N[C@@H]([C@@H](C)O)C(=O)N[C@H](CCN)C(=O)N[C@@H](CCCCN)C(=O)N[C@H](C(=O)N[C@@H](Cc2ccc(O)cc2)C(=O)N[C@@H](CCCNC(=N)N)C(=O)N[C@@H](Cc2ccc(O)cc2)C(=O)O)CSSC1(C)C)[C@@H](C)O [Example 128, Lys-Lys-Hyp-Val-Hyp-Ile-Thr-Tyr-Pen-Asn-Arg-Dab-Thr-^DDab-Lys-Cys-Tyr-Arg-Tyr] (HELM PEPTIDE1{K.K.[Hyp].V.[Hyp].I.T.Y.[Pen].N.R.[Dab].T.[NCC[C@@H](N[*:1])C(=O)[*:2]].K.C.Y.R.Y}$PEPTIDE1,PEPTIDE1,9:R3-16:R3$$$V2.0; N-terminus and C-terminus assumed)
- Escherichia coli ATCC 25922 MIC [1]: 0.125 µg/mL
- Escherichia coli MCR-1 Af 45 MIC [2]: 0.0625 µg/mL
- Klebsiella pneumoniae SSI3010 MIC [3]: 0.125 µg/mL
- Hemolysis at 0.2 g/L [4]: 0%

SMILES: CC[C@H](C)[C@H](NC(=O)CN(CCN)C(=O)[C@@H](NC(=O)[C@@H]1C[C@@H](O)CN1C(=O)[C@H](CCCCN)NC(=O)[C@@H](N)CCCCN)C(C)C)C(=O)N[C@H](C(=O)N[C@@H](Cc1ccc(O)cc1)C(=O)N[C@@H]1C(=O)N[C@@H](CC(N)=O)C(=O)N[C@@H](CCCNC(=N)N)C(=O)N[C@@H](CCN)C(=O)N[C@@H]([C@@H](C)O)C(=O)N[C@H](CCN)C(=O)N[C@@H](CCCCN)C(=O)N[C@H](C(=O)N[C@@H](Cc2ccc(O)cc2)C(=O)N[C@@H](CCCNC(=N)N)C(=O)N[C@@H](Cc2ccc(O)cc2)C(=O)O)CSSC1(C)C)[C@@H](C)O [Example 129, Lys-Lys-Hyp-Val-Ndab-Ile-Thr-Tyr-Pen-Asn-Arg-Dab-Thr-^DDab-Lys-Cys-Tyr-Arg-Tyr] (HELM PEPTIDE1{K.K.[Hyp].V.[NCCN(CC(=O)[*:2])[*:1]].I.T.Y.[Pen].N.R.[Dab].T.[NCC[C@@H](N[*:1])C(=O)[*:2]].K.C.Y.R.Y}$PEPTIDE1,PEPTIDE1,9:R3-16:R3$$$V2.0)
- Escherichia coli ATCC 25922 MIC [1]: 0.25 µg/mL
- Escherichia coli MCR-1 Af 45 MIC [2]: 0.0625 µg/mL
- Klebsiella pneumoniae SSI3010 MIC [3]: 0.125 µg/mL
- Hemolysis at 0.2 g/L [4]: 0%

SMILES: CC[C@H](C)[C@H](NC(=O)CN(CCN)C(=O)[C@@H](NC(=O)[C@@H]1C[C@@H](O)CN1C(=O)[C@H](CCCCN)NC(=O)CNCCN)C(C)C)C(=O)N[C@H](C(=O)N[C@@H](Cc1ccc(O)cc1)C(=O)N[C@@H]1C(=O)N[C@@H](CC(N)=O)C(=O)N[C@@H](CCCNC(=N)N)C(=O)N[C@@H](CCN)C(=O)N[C@@H]([C@@H](C)O)C(=O)N[C@H](CCN)C(=O)N[C@@H](CCCCN)C(=O)N[C@H](C(=O)N[C@@H](Cc2ccc(O)cc2)C(=O)N[C@@H](CCCNC(=N)N)C(=O)N[C@@H](Cc2ccc(O)cc2)C(=O)O)CSSC1(C)C)[C@@H](C)O [Example 130, Ndab-Lys-Hyp-Val-Ndab-Ile-Thr-Tyr-Pen-Asn-Arg-Dab-Thr-^DDab-Lys-Cys-Tyr-Arg-Tyr] (H-[Gly(N-2-aminoethyl)]K[Hyp]V[Gly(N-2-aminoethyl)]ITY[Pen]NR[Dab]T[dDab]KCYRY-OH; disulfide 9-16)
- Escherichia coli ATCC 25922 MIC [1]: 0.25 µg/mL
- Escherichia coli MCR-1 Af 45 MIC [2]: 0.125 µg/mL
- Klebsiella pneumoniae SSI3010 MIC [3]: 0.25 µg/mL
- Hemolysis at 0.2 g/L [4]: 0%

SMILES: CC[C@H](C)[C@H](NC(=O)[C@@H](NC(=O)[C@@H]1CCCN1C(=O)[C@@H](NC(=O)[C@@H]1C[C@@H](N)CN1C(=O)[C@H](CCCCN)NC(=O)[C@@H](N)CCCCN)C(C)C)[C@@H](C)CC)C(=O)N[C@@H](Cc1ccc(O)cc1)C(=O)N[C@H]1CCNC(=O)CC[C@@H](C(=O)N[C@@H](CCN)C(=O)N[C@@H](CCCNC(=N)N)C(=O)N[C@@H](Cc2ccc(O)cc2)C(=O)O)NC(=O)[C@H](CCCCN)NC(=O)[C@@H](CCN)NC(=O)[C@H]([C@@H](C)O)NC(=O)[C@H](CCN)NC(=O)[C@H](CCCNC(=N)N)NC(=O)[C@H](CC(N)=O)NC1=O [Example 131, Lys-Lys-Pro((4R)NH2)-Val-Pro-Ile-Ile-Tyr-Dab-Asn-Arg-Dab-Thr-^DDab-Lys-Glu-Dab-Arg-Tyr] (HELM PEPTIDE1{K.K.[N[C@@H]1C[C@@H](C(=O)[*:2])N([*:1])C1].V.P.I.I.Y.[Dab].N.R.[Dab].T.[NCC[C@@H](N[*:1])C(=O)[*:2]].K.E.[Dab].R.Y}$PEPTIDE1,PEPTIDE1,9:R3-16:R3$$$V2.0)
- Escherichia coli ATCC 25922 MIC [1]: 0.125 µg/mL
- Escherichia coli MCR-1 Af 45 MIC [2]: 0.125 µg/mL
- Klebsiella pneumoniae SSI3010 MIC [3]: 0.25 µg/mL
- Hemolysis at 0.2 g/L [4]: 0%

SMILES: CC[C@H](C)[C@H](NC(=O)[C@@H](NC(=O)[C@@H]1CCCN1C(=O)[C@@H](NC(=O)[C@@H]1C[C@@H](N)CN1C(=O)[C@H](CCCCN)NC(=O)[C@@H](N)CCCCN)C(C)C)[C@@H](C)CC)C(=O)N[C@@H](Cc1ccc(O)cc1)C(=O)N[C@H]1CC(=O)NCC[C@@H](C(=O)N[C@@H](CCN)C(=O)N[C@@H](CCCNC(=N)N)C(=O)N[C@@H](Cc2ccc(O)cc2)C(=O)O)NC(=O)[C@H](CCCCN)NC(=O)[C@@H](CCN)NC(=O)[C@H]([C@@H](C)O)NC(=O)[C@H](CCN)NC(=O)[C@H](CCCNC(=N)N)NC(=O)[C@H](CC(N)=O)NC1=O [Example 132] (HELM PEPTIDE1{K.K.[N[C@@H]1C[C@@H](C(=O)[*:2])N([*:1])C1].V.P.I.I.Y.D.N.R.[Dab].T.[NCC[C@@H](N[*:1])C(=O)[*:2]].K.[Dab].[Dab].R.Y}$PEPTIDE1,PEPTIDE1,9:R3-16:R3$$$V2.0)
- Escherichia coli ATCC 25922 MIC [1]: 0.0625 µg/mL
- Escherichia coli MCR-1 Af 45 MIC [2]: 0.0625 µg/mL
- Klebsiella pneumoniae SSI3010 MIC [3]: 0.0625 µg/mL
- Hemolysis at 0.2 g/L [4]: 0%
